Starred links: 1 amine or outer side, 2 acyl side, 3 side chain; linkers in the order of their positions; H or OH if unused. Positions of bridges follow the written chain, without caps; N, C: chain ends. Non-standard residues stand in square brackets, D forms with d. Residues, ends and D or L forms follow the SMILES beside them. *: point of attachment. DOTA = O=C(O)CN1CCN(CC(=O)O)CCN(CC(=O)*)CCN(CC(=O)O)CC1; mXylylene = c1cc(C[*:1])cc(C[*:2])c1; NMeY = CN[C@@H](Cc1ccc(O)cc1)C(=O)O; X2 = O=C(CN1CCC(N[*:1])CC1)[*:2]; Tic = O=C(O)[C@@H]1Cc2ccccc2CN1; Aic = NC1(C(=O)O)Cc2ccccc2C1; Isovaleryl = CC(C)CC(=O)*; Thp = NC1(C(=O)O)CCOCC1; βAla = NCCC(=O)O

This test concerns the target T1, CAIX-expressing human HT-29 colorectal cancer cells (Homo sapiens, UniProt Q16790).
T1 construct: CAIX-expressing human HT-29 colorectal cancer cells; host or cells: HT-29 human colorectal cancer cells
Put plainly: FACS binding assay (IC50 determination, competition with tracer 3BP-2776 or 3BP-4149). Conditions: FACS competition on HT-29 cells, Tracer ID 3BP-2776 (10 nM, biotin-labeled), 4° C., 1 hour; read-out: pIC50 category (activity) (converted). In a few lines:
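HT-29 cells in FACS buffer (PBS, 1% FCS) at 500.000 cells/ml were exposed to compounds competing with a labelled tracer, with biotinylated compounds detected by 1 μg/mL APC-streptavidin for 30 min on ice. APC/Cy5 median fluorescence was read by flow cytometry and IC50 derived by 4PL fit.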
Background: Flow cytometry measures light scatter and fluorescence of single cells or particles in a stream.
As for `CC(=O)N[C@@H](CO)C(=O)N[C@@H](Cc1ccc(O)cc1)C(=O)N[C@H]1CSCc2cccc(c2)CSC[C@@H](C(N)=O)NC(=O)[C@H](CO)NC(=O)[C@H](Cc2c[nH]c3ccccc23)NC(=O)[C@H]([C@@H](C)O)NC(=O)[C@H](CC(C)C)NC(=O)[C@H](Cc2c[nH]c3ccccc23)NC(=O)[C@H](CC(=O)O)NC(=O)[C@H]2CCCN2C(=O)[C@H](CCC(=O)O)NC1=O` [3BP-3566] (Ac-SYCE[dP]DWLTWSC-NH2; linker 3-12 via mXylylene), the IC50 was under 10 nM.

For the molecule `CC(=O)N[C@H](C(=O)N[C@@H](Cc1ccc(O)cc1)C(=O)N[C@H]1CSCc2cccc(c2)CSC[C@@H](C(N)=O)NC(=O)[C@H](CO)NC(=O)[C@H](Cc2c[nH]c3ccccc23)NC(=O)[C@H]([C@@H](C)O)NC(=O)[C@H](CC(C)C)NC(=O)[C@H](Cc2c[nH]c3ccccc23)NC(=O)[C@H](CC(=O)O)NC(=O)[C@H]2CCCN2C(=O)[C@H](CCC(=O)O)NC1=O)[C@@H](C)O` [3BP-3567] (Ac-TYCE[dP]DWLTWSC-NH2; linker 3-12 via mXylylene), the IC50 was under 10 nM.

With `CC[C@H](C)[C@H](NC(C)=O)C(=O)N[C@@H](Cc1ccc(O)cc1)C(=O)N[C@H]1CSCc2cccc(c2)CSC[C@@H](C(N)=O)NC(=O)[C@H](CO)NC(=O)[C@H](Cc2c[nH]c3ccccc23)NC(=O)[C@H]([C@@H](C)O)NC(=O)[C@H](CC(C)C)NC(=O)[C@H](Cc2c[nH]c3ccccc23)NC(=O)[C@H](CC(=O)O)NC(=O)[C@H]2CCCN2C(=O)[C@H](CCC(=O)O)NC1=O` [3BP-3568] (Ac-IYCE[dP]DWLTWSC-NH2; linker 3-12 via mXylylene), the IC50 was under 10 nM.

Take `CC(C)CC(=O)N[C@@H](Cc1ccc(O)cc1)C(=O)N[C@H]1CSCc2cccc(c2)CSC[C@@H](C(N)=O)NC(=O)[C@H](CO)NC(=O)[C@H](Cc2c[nH]c3ccccc23)NC(=O)[C@H]([C@@H](C)O)NC(=O)[C@H](CC(C)C)NC(=O)[C@H](Cc2c[nH]c3ccccc23)NC(=O)[C@H](CC(=O)O)NC(=O)[C@H]2CCCN2C(=O)[C@H](CCC(=O)O)NC1=O` [3BP-3569] (Isovaleryl-YCE[dP]DWLTWSC-NH2; linker 2-11 via mXylylene): the IC50 is under 10 nM.

`CC(=O)N[C@H](C(=O)N[C@@H](Cc1ccccc1)C(=O)N[C@H]1CSCc2cccc(c2)CSC[C@@H](C(N)=O)NC(=O)[C@H](CO)NC(=O)[C@H](Cc2c[nH]c3ccccc23)NC(=O)[C@H]([C@@H](C)O)NC(=O)[C@H](CC(C)C)NC(=O)[C@H](Cc2c[nH]c3ccccc23)NC(=O)[C@H](CC(=O)O)NC(=O)[C@H]2CCCN2C(=O)[C@H](CCC(=O)O)NC1=O)C(C)C` [3BP-3570] (Ac-VFCE[dP]DWLTWSC-NH2; linker 3-12 via mXylylene): the IC50 was under 10 nM.

In the case of `CC(=O)N[C@H](C(=O)N[C@@H](CO)C(=O)N[C@H]1CSCc2cccc(c2)CSC[C@@H](C(N)=O)NC(=O)[C@H](CO)NC(=O)[C@H](Cc2c[nH]c3ccccc23)NC(=O)[C@H]([C@@H](C)O)NC(=O)[C@H](CC(C)C)NC(=O)[C@H](Cc2c[nH]c3ccccc23)NC(=O)[C@H](CC(=O)O)NC(=O)[C@H]2CCCN2C(=O)[C@H](CCC(=O)O)NC1=O)C(C)C` [3BP-3571] (Ac-VSCE[dP]DWLTWSC-NH2; linker 3-12 via mXylylene), the IC50 is under 10 nM.

As to `CC(=O)N[C@H](C(=O)N1Cc2ccccc2C[C@H]1C(=O)N[C@H]1CSCc2cccc(c2)CSC[C@@H](C(N)=O)NC(=O)[C@H](CO)NC(=O)[C@H](Cc2c[nH]c3ccccc23)NC(=O)[C@H]([C@@H](C)O)NC(=O)[C@H](CC(C)C)NC(=O)[C@H](Cc2c[nH]c3ccccc23)NC(=O)[C@H](CC(=O)O)NC(=O)[C@H]2CCCN2C(=O)[C@H](CCC(=O)O)NC1=O)C(C)C` [3BP-3572] (Ac-V[Tic]CE[dP]DWLTWSC-NH2; linker 3-12 via mXylylene), the IC50 was 10 to 79.4 nM.

As to `CC(C)[C@H](NC(=O)CN1CCC(NC(=O)CN2CCN(CC(=O)O)CCN(CC(=O)O)CCN(CC(=O)O)CC2)CC1)C(=O)N[C@@H](Cc1ccc(O)cc1)C(=O)N[C@H]1CSCc2cccc(c2)CSC[C@@H](C(N)=O)NC(=O)[C@H](CO)NC(=O)[C@H](Cc2c[nH]c3ccccc23)NC(=O)[C@H]([C@@H](C)O)NC(=O)C2(CCOCC2)NC(=O)[C@H](Cc2c[nH]c3ccccc23)NC(=O)[C@H](CC(=O)O)NC(=O)[C@H]2CCCN2C(=O)[C@H](CCC(=O)O)NC1=O` [3BP-3585] ({DOTA}-[X2]VYCE[dP]DW[Thp]TWSC-NH2; linker 4-13 via mXylylene), the IC50 was under 10 nM.

In the case of `CC(C)[C@H](NC(=O)CN1CCC(NC(=O)CN2CCN(CC(=O)O)CCN(CC(=O)O)CCN(CC(=O)O)CC2)CC1)C(=O)N[C@@H](Cc1ccc(O)cc1)C(=O)N[C@H]1CSCc2cccc(c2)CSC[C@@H](C(N)=O)NC(=O)[C@H](CO)NC(=O)[C@H](Cc2c[nH]c3ccccc23)NC(=O)[C@H]([C@@H](C)O)NC(=O)C2(Cc3ccccc3C2)NC(=O)[C@H](Cc2c[nH]c3ccccc23)NC(=O)[C@H](CC(=O)O)NC(=O)[C@H]2CCCN2C(=O)[C@H](CCC(=O)O)NC1=O` [3BP-3586] ({DOTA}-[X2]VYCE[dP]DW[Aic]TWSC-NH2; linker 4-13 via mXylylene), the IC50 is under 10 nM.

In the case of `CC(=O)N[C@H](C(=O)N[C@@H](CCCNC(=N)N)C(=O)N[C@H]1CSCc2cccc(c2)CSC[C@@H](C(N)=O)NC(=O)[C@H](CO)NC(=O)[C@H](Cc2c[nH]c3ccccc23)NC(=O)[C@H]([C@@H](C)O)NC(=O)[C@H](CC(C)C)NC(=O)[C@H](Cc2c[nH]c3ccccc23)NC(=O)[C@H](CC(=O)O)NC(=O)[C@H]2CCCN2C(=O)[C@H](CCC(=O)O)NC1=O)C(C)C` [3BP-3588] (Ac-VRCE[dP]DWLTWSC-NH2; linker 3-12 via mXylylene), the IC50 is under 10 nM.

With `CC(=O)N[C@H](C(=O)N(C)[C@@H](Cc1ccc(O)cc1)C(=O)N[C@H]1CSCc2cccc(c2)CSC[C@@H](C(N)=O)NC(=O)[C@H](CO)NC(=O)[C@H](Cc2c[nH]c3ccccc23)NC(=O)[C@H]([C@@H](C)O)NC(=O)[C@H](CC(C)C)NC(=O)[C@H](Cc2c[nH]c3ccccc23)NC(=O)[C@H](CC(=O)O)NC(=O)[C@H]2CCCN2C(=O)[C@H](CCC(=O)O)NC1=O)C(C)C` [3BP-3589] (Ac-V[NMeY]CE[dP]DWLTWSC-NH2; linker 3-12 via mXylylene), the IC50 was under 10 nM.

Turning to `CC(C)C[C@@H]1NC(=O)[C@H](Cc2c[nH]c3ccccc23)NC(=O)[C@H](CO)NC(=O)[C@H]2CCCN2C(=O)[C@H](CCC(=O)O)NC(=O)[C@@H](NC(=O)[C@H](Cc2ccc(O)cc2)NC(=O)[C@@H](NC(=O)CN2CCC(NC(=O)CN3CCN(CC(=O)O)CCN(CC(=O)O)CCN(CC(=O)O)CC3)CC2)C(C)C)CSCc2cccc(c2)CSC[C@@H](C(N)=O)NC(=O)[C@H](CO)NC(=O)[C@H](Cc2c[nH]c3ccccc23)NC(=O)[C@H]([C@@H](C)O)NC1=O` [3BP-3595] ({DOTA}-[X2]VYCE[dP]SWLTWSC-NH2; linker 4-13 via mXylylene), the IC50 is under 10 nM.

With `CC(C)C[C@@H]1NC(=O)[C@H](Cc2ccccc2)NC(=O)[C@H](CC(=O)O)NC(=O)[C@H]2CCCN2C(=O)[C@H](CCC(=O)O)NC(=O)[C@@H](NC(=O)[C@H](Cc2ccc(O)cc2)NC(=O)[C@@H](NC(=O)CN2CCC(NC(=O)CN3CCN(CC(=O)O)CCN(CC(=O)O)CCN(CC(=O)O)CC3)CC2)C(C)C)CSCc2cccc(c2)CSC[C@@H](C(N)=O)NC(=O)[C@H](CO)NC(=O)[C@H](Cc2c[nH]c3ccccc23)NC(=O)[C@H]([C@@H](C)O)NC1=O` [3BP-3596] ({DOTA}-[X2]VYCE[dP]DFLTWSC-NH2; linker 4-13 via mXylylene), the IC50 was under 10 nM.

Regarding `CC(C)C[C@@H]1NC(=O)[C@H](Cc2c[nH]c3ccccc23)NC(=O)[C@H](CC(=O)O)NC(=O)[C@H]2CCCN2C(=O)[C@H](CCC(=O)O)NC(=O)[C@@H](NC(=O)[C@H](Cc2ccc(O)cc2)NC(=O)[C@@H](NC(=O)CN2CCC(NC(=O)CN3CCN(CC(=O)O)CCN(CC(=O)O)CCN(CC(=O)O)CC3)CC2)C(C)C)CSCc2cccc(c2)CSC[C@@H](C(N)=O)NC(=O)[C@H](CO)NC(=O)[C@H](Cc2c[nH]c3ccccc23)NC(=O)[C@H](Cc2c[nH]cn2)NC1=O` [3BP-3597] ({DOTA}-[X2]VYCE[dP]DWLHWSC-NH2; linker 4-13 via mXylylene), the IC50 is under 10 nM.

For `CC(=O)N[C@H](C(=O)N[C@@H](Cc1ccc(O)cc1)C(=O)N[C@@H]1CSCc2cccc(c2)CSC[C@@H](C(N)=O)NC(=O)[C@H](CO)NC(=O)[C@H](Cc2c[nH]c3ccccc23)NC(=O)[C@H]([C@@H](C)O)NC(=O)[C@H](CC(C)C)NC(=O)[C@H](Cc2c[nH]c3ccccc23)NC(=O)CCNC1=O)C(C)C` [3BP-3604] (Ac-VY[dC][βAla]WLTWSC-NH2; linker 3-10 via mXylylene), the IC50 is 100 to 794 nM.

For the molecule `CC(C)CC(=O)N[C@@H](CC(=O)O)C(=O)N[C@H]1CSCc2cccc(c2)CSC[C@@H](C(N)=O)NC(=O)[C@H](CO)NC(=O)[C@H](Cc2c[nH]c3ccccc23)NC(=O)[C@H]([C@@H](C)O)NC(=O)[C@H](CC(C)C)NC(=O)[C@H](Cc2c[nH]c3ccccc23)NC(=O)[C@H](CC(=O)O)NC(=O)[C@H]2CCCN2C(=O)[C@H](CCC(=O)O)NC1=O` [3BP-3727] (Isovaleryl-DCE[dP]DWLTWSC-NH2; linker 2-11 via mXylylene), the IC50 was under 10 nM.

Regarding `CC(C)CC(=O)N[C@@H](CCC(=O)O)C(=O)N[C@H]1CSCc2cccc(c2)CSC[C@@H](C(N)=O)NC(=O)[C@H](CO)NC(=O)[C@H](Cc2c[nH]c3ccccc23)NC(=O)[C@H]([C@@H](C)O)NC(=O)[C@H](CC(C)C)NC(=O)[C@H](Cc2c[nH]c3ccccc23)NC(=O)[C@H](CC(=O)O)NC(=O)[C@H]2CCCN2C(=O)[C@H](CCC(=O)O)NC1=O` [3BP-3728] (Isovaleryl-ECE[dP]DWLTWSC-NH2; linker 2-11 via mXylylene), the IC50 was under 10 nM.

For the origin of these results see patent US20250339569A1, “CARBONIC ANHYDRASE IX LIGANDS” (priority 2021, published 2025).
